Test results from US20250108036A1, “COMPOSITIONS FOR REMOVING SENESCENT CELLS AND USES THEREOF” (LIFECEUTIX CO., LTD., priority 2021, published 2025).

What was measured:
[1] = system: senescent cancer (A549) cells; experiment: survival of senescent A549 cancer cells treated with medium supernatant of compound-killed cancer cells (Example 14, Table 70); assay type: cell-based, human
Description: In the same way as Examples 12 and 13, senescence of cancer (A549) cells was induced by treatment with doxorubicin or the control group (DMSO), and the cells were cultured. […] In the same manner as in Example 13, the medium supernatants comprising secreted fluid from normally proliferating and senescent cancer cells was obtained. Normally proliferating and senescent-induced cancer cells were treated with the medium supernatants.
Furthermore, other test compounds were used in the same manner in Example 12 above at high concentrations of 30 μM, 90 μM, and 270 μM, respectively, and the cultured medium supernatant comprising secreted fluid from aged cancer cells that were killed were obtained. As a result of measuring the degree of death of aged cancer cells, it was confirmed that aged cancer cells can be effectively removed, as shown in Example 12 and Table 65.

[2] = system: p16; experiment: p16 mRNA qRT-PCR in organ tissues of naturally aged mice (Example 7-2); assay type: in vivo, C57BL6J mice; conditions: LX-112 70 mg/kg oral daily 21 days, aged untreated = 100%
Description: (§1) After 22-month-old female C57BL6J mice (purchased from KRIBB Laboratory Animal Resource Center) were adapted to the experimental environment for one week, the aged mice were randomized into an experimental group and a control group. 8-week-old mice that were not aged were used as controls. LX-112 was mixed with 0.5% CMC-Na solution (purchased from Sigma) and administered orally at a concentration of 70 mg/kg daily for 21 days. The control group was administered only the solution in the same volume. After drug administration was completed, the method described in each Example below was performed.
The mouse was sacrificed, RNA was extracted from the organ tissue of each region, and qRT-PCR was performed using the synthesized cDNA. Specifically, in order to maintain the quality of RNA during the RNA extraction process, the tissue from each collected area was immediately cut into 30 mg to 50 mg pieces, placed in RNA stabilization solution (purchased from Thermo Fisher Scientific), and absorbed into the tissue for 1 day. Afterwards, it was stored at −80° C. until use. The collected tissue was placed together with the lysate in a tube containing beads for tissue homogenization (purchased from MP Bio) and homogenized using tissue homogenization equipment (purchased from MP Bio). Total RNA was extracted from the homogenized tissues. The extraction method used an RNA extraction kit (PureLink RNA Mini Kit, purchased from Thermo Fisher Scientific) for soft tissues including liver, kidney, lung, and brain, or TRIzol Reagent (purchased from Thermo Fisher Scientific) for hard tissues including muscle, skin, fat, etc. The concentration of extracted total RNA was quantified using Nanodrop (purchased from Micro Digital) or SpectraMax iD3 Multi-Mode Microplate Reader (purchased from Molecular Device). Genomic DNA was removed from the extracted total RNA using a cDNA synthesis kit (purchased from Thermo Fisher Scientific), and cDNA was prepared. Using the synthesized cDNA, qRT-PCR was performed for each gene using the housekeeping gene β-actin as a standard, using Taqman Fast Abvanced Master Mix (purchased from Applied Biosystems), SFCgreen I qPCR Master Mix (purchased from SFC Probe), or AmfiSure qGreen qPCR Master Mix (purchased from GenDEPOT), and analyzed using the CFX Connect Real-Time PCR Detection System (purchased from Bio Rad). […] Table 22 calculates the amount of p16 mRNA after senescence was induced as 100% and compared it with the amount of p16 mRNA after treatment with LX-112. The primers used were synthesized through bionics, except that TaqMan primers (purchased from Thermo Fisher Scientific) were used for p16 and IL6.

[3] = system: MMP3, IL1β, MMP12, IL6, MMP13; experiment: SASP mRNA qRT-PCR in organ tissues of naturally aged mice (Example 7-6); assay type: in vivo, C57BL6J mice; conditions: LX-112 70 mg/kg oral daily 21 days, aged untreated = 100%
Description: as §1
Using cDNA synthesized in the same manner as in Example 7-2, qRT-PCR was performed and analyzed for MMP3, IL1β, MMP12, IL6, and MMP13, which are aging-related inflammation and fibrosis secretory factors (SASP). […] Table 31 calculates the mRNA amount of each factor after senescence was induced as 100% and compared it with the mRNA amount of each factor after treatment with LX-112.

[4] = skin aging (dermal thickness, collagen mRNA) in naturally aged mice (Example 7-9); assay type: in vivo, C57BL6J mice
Description: as §1
Frozen sections of skin tissue were stained with H/E (Hematoxylin/Eosin), and the thickness of the dermis was observed under an optical microscope. Additionally, the mRNA amount of collagen (COL1A1) was measured by qRT-PCR as described in Example 7-2.

[5] = system: p16, p21; experiment: p16 and p21 mRNA qRT-PCR in doxorubicin-aged mice (Example 8-2); assay type: in vivo, C57BL6J mice; conditions: doxorubicin-aged mice, LX-112 70 mg/kg oral daily 21 days; DOX without LX = 100%
Description: After adapting 8-week-old male C57BL6J mice (purchased from KRIBB Laboratory Animal Resource Center) to the experimental environment for 1 week, doxorubicin, an anticancer drug, was administered intraperitoneally at a concentration of 10 mg/kg, and mice that were induced to age for more than 10 days were assigned to an experimental group and a control group. LX-112 was mixed with 0.5% CMC-Na solution (purchased from Sigma) and administered orally at a concentration of 70 mg/kg daily for 21 days. The control group was administered only the solution in the same volume. After drug administration was completed, the method described in each Example below was performed.
The mouse was sacrificed in the same manner as in Example 7-2, RNA was extracted from the organ tissue of each region, and qRT-PCR was performed and analyzed using the synthesized cDNA. […] Table 37 calculates the mRNA amounts of p16 and p21 after aging was induced by treatment with the anticancer drug as 100% and compared them with the mRNA amounts of p16 and p21 after treatment with LX-112.

[6] = system: HMGB1; experiment: HMGB1 ELISA in culture medium of senescent foreskin cells (Example 10, Table 62); assay type: cell-based, human
Description: After 6 hours, the amounts of HMGB1 and HMGN1 secreted into the cell culture medium were measured using an enzyme-linked immunosorbent assay (ELISA Kit, purchased from AssayGenie).

COC(=O)c1ccc([C@H]2c3[nH]c4ccccc4c3C[C@H](C(=O)OC)N2C(=O)CCl)cc1 [LX-405]
Survival (%) ([1]; supernatant from No Cells): 98.2 (±2.8) %
Survival (%) ([1]; supernatant from death-induced proliferating cells (LX-405 30 μM)): 78.8 (±7.7) %
Survival (%) ([1]; supernatant from death-induced senescent cells (LX-405 30 μM)): 72.5 (±5.7) %

O=c1c2ccccc2[se]n1CCn1[se]c2ccccc2c1=O [LX-112, 1,2-[bis(1,2-benzisoselenazolone-3(2H)-ketone)]ethane]
p16 mRNA (%) Brain [2]: 89 (±5) %
p16 mRNA (%) Kidney [2]: 52 (±7.9) %
p16 mRNA (%) Liver [2]: 62 (±3.5) %
p16 mRNA (%) Lung [2]: 69 (±1) %
p16 mRNA (%) Muscle [2]: 76 (±3.1) %
p16 mRNA (%) Skin [2]: 74 (±6.7) %
p16 mRNA (%) eWAT [2]: 79 (±2) %
mRNA (%) Kidney IL1β [3]: 67 (±3.9) %
mRNA (%) Liver MMP3 [3]: 75 (±13) %
mRNA (%) Lung MMP 12 [3]: 81 (±13) %
mRNA (%) Muscle IL6 [3]: 65 (±21) %
mRNA (%) Skin MMP3 [3]: 92 (±6) %
mRNA (%) Skin MMP12 [3]: 78 (±14) %
mRNA (%) Skin MMP13 [3]: 95 (±2) %
Collagen mRNA (Fold) ([4]; COL1A1, skin, LX-112, aged untreated = 1): 2.3 (±0.4) Fold
Dermal Thickness (μm) ([4]; LX-112 70 mg/kg oral daily 21 days): 265 (±17.2) μm
p16 mRNA (%) Kidney [5]: 75 (±14.81) %
p16 mRNA (%) Liver [5]: 70 (±8.3) %
p16 mRNA (%) eWAT [5]: 72 (±18.75) %
p21 mRNA (%) Kidney [5]: 83.8 (±9.5)^ %
p21 mRNA (%) Liver [5]: 78 (±11.5) %
p21 mRNA (%) eWAT [5]: 68.4 (±15.1)^ %
HMGB1 (pg/ml) ([6]; 10 μM, culture medium after 6 hours, senescent foreskin cells): 454.9 (±22.4) pg/ml
HMGB1 secreted in the culture medium from dying senescent cells ([6]; ABT-263 1 μM or LX-112 10 μM, 6 hours): little change
